Data on 88 compounds can be found in a melting point compilation (Tetko et al.; mined from patent text by program, amines drawn as free bases though some values may be those of a salt).

On to `Cc1ccccc1-c1nc(-c2ccccc2Cl)n[nH]1`, for which the melting point lay within 109 to 111 °C.

In turn, `Cc1ccccc1OCC(=O)Nc1c(C)cccc1C(=O)O` came in with a melting point of 133 to 136 °C. `CCOC(=O)c1c(NCC(=O)c2ccccc2Cc2ccccc2)c2c(Cl)cc(Cl)cc2n1C(=O)OC(C)(C)C` had a melting point of 163 °C. Regarding `CC(C)n1nc(-c2nc(C#N)c(C#N)nc2-c2ccccc2Br)ccc1=O`, the melting point lay within 160 to 161 °C.

In the case of `CC1(O)CCC(=O)N(O)C1` (stereo not drawn), the melting point fell in the range of 98 to 100 °C. As for `CCOc1nn(Cc2ccc(OCc3nc(-c4ccccc4)oc3C)nc2)cc1CC(=O)O`, the figure is 126 to 127 °C; as for `COc1cc(CCC=CC(C)=O)ccc1OCc1ccccc1`, 59.5 to 60.5 °C; as for `CCOC(=O)C(=O)Nc1ccc2c(=O)n3c(nc2c1)C(=Cc1ccc(OC)cc1OC)CC3`, 285 to 288 °C.

With `NC(=O)c1cc(CO)ccc1[N+](=O)[O-]`, the melting point was in the range of 143 to 145 °C. Take `O=C(O)Cc1cc(C(=O)c2ccc(Cl)cc2)ccc1O`: the melting point stood at 250 °C. As for `CSc1nc2c(F)cccc2s1`, the figure is 30 °C; as for `COc1ccc2[nH]c(-c3cc4cccnc4n3S(=O)(=O)c3ccc(C)cc3)cc2c1`, 226 to 227 °C.

Compound `CC(C)(NC(=O)CCNC(=O)c1ccccc1)c1ccccc1` returned a melting point of 147 to 148 °C. The compound `CN1CCN(c2ccc(Nc3ncc4cc(C#N)c(=O)n(C5CCCC5)c4n3)cc2)CC1` returned a melting point of 290 to 292 °C. Take `COc1ccc(Cl)c(C)c1C=O`: the melting point is 86 to 88 °C. The compound `CC(=O)Nc1nnc2c3c(c(N4CCCCC4)nn12)CCCC3` came in with a melting point of 214 to 216 °C.

In turn, `O=CC(=Cc1ccccc1OCc1ccccc1)C(C=O)=Cc1ccccc1OCc1ccccc1` registered a melting point of 120 to 121 °C. The compound `O=c1nc(-c2ccccc2)c2cc([N+](=O)[O-])ccc2[nH]1` returned a melting point of over 300 °C. In the case of `COc1cccc(C(=C/C=C/C(=O)NC(C)(C)CCCc2cccnc2)c2cccc(OC)c2)c1`, the melting point was 120 to 121 °C. The compound `CON(Cc1ccc(C(=O)OC(C)(C)C)cc1)C(=O)C1=C(O)C(=O)N(C)C1` had a melting point of 157 to 160 °C. `CC(C)N(CCC(CCN1CCCCC1)(C(N)=O)c1ccccc1Cl)Cc1ccccc1` (stereo not drawn): the melting point was in the range of 104 to 111 °C.

`O=C(CCCCCCOc1ccc(OCc2ccccc2)cc1)c1nnc(COCc2ccccc2)o1` gave a melting point of 95 to 97 °C. The compound `CNC(=O)CCCCSc1nccc(NC(N)=NCC(F)(F)F)n1` gave a melting point of 148 to 150 °C. With `CC(=O)Nc1nc(CCc2ccc(NC(=N)NN)cc2)cs1`, the melting point fell in the range of 216 to 218 °C.

Consider `O=C1Oc2ccc(Cl)cc2C2=c3ccccc3=NCC12` (stereo not drawn), for which the melting point is over 350 °C. For the compound `CCOC(=O)C(=O)N(c1ccccc1N)C(C)(C)C`, the melting point was 64 to 65 °C. With `O=C(c1ccnc(Cl)c1)N1CC(c2ccc(F)cc2)C2(CCN(C/C=C/c3ccc(Cl)cc3)CC2)C1` (stereo not drawn), the melting point lay within 79 to 81 °C.

`O=C(/C=C/c1ccc(O)c(C(F)(F)F)c1)/C=C/c1ccc(O)c(C(F)(F)F)c1` came in with a melting point of 233 to 234 °C. In turn, `CN(Cc1ccc(C2=NCCN2C(=O)OC(C)(C)C)cc1)C(=O)/C=C/CNCS(=O)(=O)c1ccc([N+](=O)[O-])cc1[N+](=O)[O-]` had a melting point of 78 °C. For the compound `O=[N+]([O-])c1ccc(C=Cc2ccncn2)cc1`, the melting point is 213 to 215 °C. Regarding `COC(=O)CCCc1cc2cc(Cl)ccc2n1S(=O)(=O)c1cccc(C(C)C)c1`, the melting point lay within 94 to 97 °C. Compound `CCCc1ccccc1OCCCOc1ccc2c(=O)cc(C(=O)O)oc2c1` came in with a melting point of 164 to 166 °C. In the case of `CC(C)C(=O)Nc1ccc2ncn3c(=O)c(C(=O)O)cnc3c2c1`, the melting point is 312 to 314 °C. The compound `NCCCP(=O)(O)C1CCCCC1` returned a melting point of 202 to 203 °C. Compound `CC(=O)NNc1nnc(-c2ccccc2)c(-c2ccccc2)n1` displayed a melting point of 166 to 168 °C. For `O=C1COC(CCc2ccccc2)CN1` (stereo not drawn), the melting point lay in the range of 100 to 102 °C. For the compound `C=CCOc1ccc2c(ccc(=O)n2CC=C(C)C)c1`, the melting point was in the range of 80 to 82 °C. As for `O=C(O)CCCCCOc1ccccc1C(=O)c1ccccc1O`, the melting point is 89 to 91 °C. `COc1cc(COc2nn(-c3ccccc3)cc2CC2SC(=O)N(C)C2=O)ccc1OCc1nc(-c2ccco2)oc1C` (stereo not drawn) registered a melting point of 111 to 112 °C.

`COC(=O)Oc1ccc(CNC=C2C(=O)NC(=O)c3ccc(Br)cc32)cc1OC(=O)OC`: the melting point lay in the range of 239 to 240 °C.

The compound `N#CC=C(C#N)Nc1ccccc1` displayed a melting point of 123 to 126 °C. Turning to `COC(C=Cc1ccccc1)=C1C(=O)C=C(C)C1=O`, the melting point came out at 86 °C. Under `O=C1CCc2c1cccc2C(F)(F)F` stands 32 to 36 °C.

With `CC1(C)CCC(=O)Nc2ccc(Nc3ncc(Cl)c(Nc4ccccc4-c4ncccn4)n3)cc21`, the melting point turned out to be 186 °C.

As to `O=Cc1c(O)ccc2ncccc12`, the melting point was 136 to 137 °C. `COc1cc(C[C@H]2NC(=O)CN(Cc3ccccc3)C2=O)ccc1C` showed a melting point of 205 to 209 °C. Regarding `COC(=O)c1cccc(CNC(=O)OC(C)(C)C)c1O`, the melting point was in the range of 95 to 96 °C.

For the compound `N#CC(=Cc1ccc2c(c1)OCO2)CN1CCOCC1`, the melting point lay within 82 to 84 °C. `CC(=O)Nc1c(I)c(C(=O)OCOC(=O)C(C)(C)C)c(I)c(N(C)C(C)=O)c1I`: the melting point lay in the range of 232 to 234 °C. For `CNC(=O)c1ccccc1Nc1nc(Nc2ccc3c(c2)N(C)CCN(S(C)(=O)=O)C3)ncc1Cl`, the melting point was in the range of 200 to 207 °C. With `COc1ccc(C(=O)c2c(N)sc(C)c2C)cc1`, the melting point fell in the range of 132 to 133 °C. As to `O=c1n(CCCC2CCCCC2)ccn1-c1ccc([N+](=O)[O-])cc1`, the melting point lay in the range of 153 to 156 °C. Consider `N#Cc1ccccc1-c1ccc(CC(NC(=O)Nc2ccccc2S(=O)(=O)N2CCCCC2)C(=O)O)cc1` (stereo not drawn), for which the melting point came out at 140 °C. As to `COc1c(C)c(C)c(OC)c(CC[C@@]2(C)CO2)c1C`, the melting point was in the range of 47 to 48 °C.

Take `CN(C(=O)c1ccccc1NC(=O)N[C@@H](Cc1ccc(NC(=O)c2c(Cl)cccc2Cl)cc1)C(=O)O)c1ccccc1`: the melting point is 178 °C.

Turning to `CC1=NCN(c2cc(Br)cs2)O1`, the melting point was in the range of 66 to 67 °C.

With `CCCC1CCc2cc(OC)c(Cl)c(Cl)c2C1=O` (stereo not drawn), the melting point lay within 127 to 129 °C. For the compound `CCCC(C)CC(C)(C)NC(=O)CN1C(=O)c2ccccc2C1=O` (stereo not drawn), the melting point stood at 132 °C.

In turn, `Cc1oc2c(NC(=O)c3c(Cl)ccc(Cl)c3C(N)=O)cccc2c1C` registered a melting point of 229 to 232 °C. `C=COc1ccc(C(=O)c2ccccc2)cc1` showed a melting point of 58 °C. As for `CCCCOc1c(C(C)O)n(C)c(=O)c2cc(Cl)c(Cl)cc12` (stereo not drawn), the melting point was 123 to 124 °C. The compound `COc1ccc(NC(=O)N2CCN(CCc3ccc(-c4cccc(N)n4)cc3)CC2)cc1` displayed a melting point of 182 to 184 °C. On to `COc1c(O)cc(C)c(OC(=O)c2ccccc2)c1OC`, for which the melting point was 109 to 111 °C. The compound `CCC1CCCCN1CCC(=O)Nc1ccc2c(=O)c3ccc(NC(=O)CCN4CCCCC4CC)cc3[nH]c2c1` (stereo not drawn) showed a melting point of over 320 °C.

Regarding `C#CC1CCC2(CC1)SCC(C(C)(C)C)CS2` (stereo not drawn), the melting point lay within 86 to 87 °C.

`NC(=O)c1cc(OCCNCC(O)c2ccccn2)ccc1O` (stereo not drawn) came in with a melting point of 169 to 170 °C. Under `CC(SCC(=O)O)c1ccc(-c2ccccc2F)cc1` (stereo not drawn) stands 125 to 127 °C; under `O=[N+]([O-])c1ccccc1Oc1ccc(Cl)cc1Cl`, 54 to 55 °C; under `CCCCCCCCOc1ccc2c(c1)C(=O)c1cc3ccccc3cc1C2=O`, 127 to 129 °C. Take `CCCC1CC(O)c2cc(S(N)(=O)=O)sc2S1` (stereo not drawn): the melting point lay in the range of 156 to 157 °C. As to `CS(=O)(=O)N1CCN(c2ccc(OC[C@H]3CCn4cc([N+](=O)[O-])nc4O3)cc2)CC1`, the melting point lay within 149 to 151 °C. Turning to `COc1ccc(CN2C(=O)[C@@H](N3C(=O)c4ccccc4C3=O)[C@H]2CCc2ccccc2)c(OC)c1` (relative stereo), the melting point was 148 to 150 °C. In the case of `O=C1NC(=O)C(Nc2ccc(CCNC[C@H](O)COc3ccc(O)cc3)cc2)S1` (stereo partly drawn), the melting point amounted to 165 °C.

`CCOc1sc(C(=O)O)c2c1-c1c(cnn1C)CC2`: the melting point was 258 to 260 °C. Turning to `CCOC(=O)c1cc2c(=O)c3cc(C(C)CO)ccc3oc2nc1N` (stereo not drawn), the melting point lay in the range of 255 to 256 °C. Under `CCOC(=O)/C=C/c1ccc(O)cc1Oc1ncc(C(F)(F)F)cc1Cl` stands 124 °C; under `CCc1nc(-c2ccc(OCCC3CCN(c4ccc(C)nn4)CC3)cc2)no1`, 125 °C. Compound `CS(=O)(=O)Nn1c(=O)[nH]c2cc(C(F)(F)F)c(-n3cnc(C(F)(F)F)c3)cc2c1=O` yielded a melting point of 144 to 147 °C. As for `CCn1cc(C(=O)O)c(=O)c2cc(F)c(N3CCN(S(=O)(=O)c4ccc(NC(C)=O)cc4)CC3)c(F)c21`, the figure is 276 to 277 °C; as for `CCOC(=O)CCc1ccc(OCc2ccc(Cn3nc(C(C)(C)C)cc3C(C)(C)C)cc2)cc1F`, 73 to 74 °C; as for `C1CCN(c2nc(N3CCCC3)c3nc(N4CCCCC4)nc(N4CCCC4)c3n2)CC1`, 254 to 256 °C. In turn, `O=C(OCc1ccccc1)N1CCC(O)(CNc2ccc(Cl)c(Cl)c2)CC1` registered a melting point of 128 to 130 °C. Under `COc1cc2c3c(cccc3c1)C(=O)c1ccccc1-2` stands 168 to 169 °C; under `CCOC(=O)c1cn(C2CC2)c2c(F)c(C#Cc3cc(Cc4cnc(N)nc4N)cc(OC)c3OC)c(F)cc2c1=O`, over 230 °C; under `O=c1c2ccccc2sc(-c2ccncc2)[n+]1[O-]`, 248 to 252 °C.

`Cc1c(C(=O)Nc2ccc(N3CCCCC3)c(C#N)c2)cnn1C` came in with a melting point of 217 to 218 °C.

For `Cc1c(C(=O)Nc2ccc(N3CCN(CCO)CC3)c(C#N)c2)cnn1-c1ccc(F)cc1F`, the melting point was 149 to 151 °C. In the case of `COc1cc(COc2nn(-c3ccccc3)cc2C=O)ccc1OCc1nc(-c2ccccc2)oc1C`, the melting point was in the range of 142 to 143 °C.

The term melting point denotes the temperature of the solid-liquid transition.
